Source: patent publication US7217505B2, “Method for determining whether condition is symptom of metabolic syndrome” (Cortendo AB, priority 1998, dated 2007)
Several values for one entry are separate records, joined by “and”; a condition that tells them apart may be missing. Equal values may be shown once.

Test system: autoproduction of cortisol
Experiment: dexamethasone inhibition test: serum cortisol the morning after low oral doses of dexamethasone
[1] = 'dangerously' belly fat individuals

C[C@@H]1C[C@H]2[C@@H]3CCC4=CC(=O)C=C[C@]4(C)[C@@]3(F)[C@@H](O)C[C@]2(C)[C@@]1(O)C(=O)CO [dexamethasone]
dose from which inhibition could be measured [1]: 0.25 mg | dose of maximum inhibition [1]: 0.5 to 1 mg | critical doses with significant differences between belly fat and other individuals (about 20 individuals, most distinct difference at 0.5 mg): 0.125 mg and 0.5 mg | dose at which inhibition of the autoproduction of cortisol was already obtained (normal weight individuals and those with general overweight but without belly fatness): 0.05 mg | dose of maximum inhibition of the autoproduction of cortisol (normal weight individuals and those with general overweight but without belly fatness (for a few also at 0.5 mg)): 1 mg
